Read-outs that look alike come from different tables or passages of the source.
Columns and labels:
[1] = cited from earlier work
[2] = Single-dose, dose escalation study Part 1: pharmacokinetics of plasma and urine DSCG in healthy subjects; type: in vivo, human; conditions: same dose (40 mg)
Method: • 1. […] 200 mg oral sodium cromoglycate solution (commercially available product), oral administration. […] 200 mg oral sodium cromoglycate solution (commercially available product), oral administration.
Prior to each dosing day, subjects were admitted to the clinic in the morning for baseline (pre-dose) assessments. Subjects were required to remain in the clinic for 12 h after study drug administration on each dosing day. Treatment Visits were separated by a washout period of 2 to 5 days.
Urine DSCG levels were measured for total DSCG excretion in the urine, and the bioavailability of the DSCG was calculated from the measured levels.
Pharmacokinetic parameters and plasma concentrations are listed and summarized. The summary statistics are presented as the geometric mean, arithmetic mean, arithmetic standard deviation (SD), min, median, max and n. The geometric statistics are not presented for Tmax. Analysis of variance (ANOVA) including terms for subject and treatment are used to calculate point estimates, and confidence intervals (CI) for treatment differences with respect to PK parameters (90% CI) are calculated.

O=C(O)c1cc(=O)c2c(OCC(O)COc3cccc4oc(C(=O)O)cc(=O)c34)cccc2o1 [Cromolyn sodium, cromolyn sodium]
oral bioavailability ([1]; listed as cromolyn sodium): less than 1% | oral bioavailability ([1]; listed as cromolyn): about 1% | lung deposition with the 30 L device compared with the 40 L device, indicated by AUC data [2]: surprisingly higher

— US10265296B2, “Methods for the treatment of systemic disorders treatable with mast cell stabilizers, including mast cell related disorders” (Respivant Sciences GmbH, priority 2015, dated 2019)
